Results published in US9914731B2, “Pyrazolo[1,5-a]pyridine derivatives and methods of their use” (Ignyta, Inc., priority 2013, dated 2018).

Key:
[1] = molecular target: recombinant human baculovirus-expressed AXL (Homo sapiens (Human), UniProt P30530); test: AXL kinase assay (HTRF KinEASE); assay type: biochemical; conditions: average of two or more determinations
[2] = molecular target: recombinant human baculovirus-expressed cMET (Homo sapiens (Human), UniProt P08581); test: c-MET kinase assay (HTRF KinEASE); assay type: biochemical; conditions: average of two or more determinations; read-out: c-MET IC50

IC50 [1] [nM] | IC50 [2] [nM] | Structure (SMILES)
< 10 | < 10 | CCn1cc(C(=O)Nc2ccc(Oc3cc(-c4cncs4)cn4nccc34)c(F)c2)c(=O)n(-c2ccc(F)cc2)c1=O [Example 104, 1-Ethyl-3-(4-fluoro-phenyl)-2,4-dioxo-1,2,3,4-tetrahydro-pyrimidine-5-carboxylic acid[3-fluoro-4-(6-thiazol-5-yl-pyrazolo[1,5-a]pyridin-4-yloxy)-phenyl]-amide]
< 10 | < 10 | Cn1cnc(-c2cc(Oc3ccc(NC(=O)c4c[nH]c(=O)n(-c5ccc(F)cc5)c4=O)cc3F)c3ccnn3c2)c1 [Example 107, 3-(4-Fluoro-phenyl)-2,4-dioxo-1,2,3,4-tetrahydro-pyrimidine-5-carboxylic acid{3-fluoro-4-[6-(1-methyl-1H-imidazol-4-yl)-pyrazolo[1,5-a]pyridin-4-yloxy]-phenyl}-amide]
< 10 | 10 to 100 | Cc1cc(NC(=O)c2cn(C(C)C)c(=O)n(-c3ccc(F)cc3)c2=O)ccc1Oc1cc(-c2cn(C)cn2)cn2nccc12 [Example 110, 3-(4-Fluoro-phenyl)-1-isopropyl-2,4-dioxo-1,2,3,4-tetrahydro-pyrimidine-5-carboxylic acid{3-methyl-4-[6-(1-methyl-1H-imidazol-4-yl)-pyrazolo[1,5-a]pyridin-4-yloxy]-phenyl}-amide]
< 10 | < 10 | CCn1cc(C(=O)Nc2ccc(Oc3cc(-c4cn(C)cn4)cn4nccc34)cc2)c(=O)n(-c2ccc(F)cc2)c1=O [Example 113, 1-Ethyl-3-(4-fluoro-phenyl)-2,4-dioxo-1,2,3,4-tetrahydro-pyrimidine-5-carboxylic acid {4-[6-(1-methyl-1H-imidazol-4-yl)-pyrazolo[1,5-a]pyridin-4-yloxy]-phenyl}-amide]
< 10 | < 10 | CC(C)n1cc(C(=O)Nc2ccc(Oc3cc(-c4cn(C)cn4)cn4nccc34)cc2)c(=O)n(-c2ccc(F)cc2)c1=O [Example 114, 3-(4-Fluoro-phenyl)-1-isopropyl-2,4-dioxo-1,2,3,4-tetrahydro-pyrimidine-5-carboxylic acid{4-[6-(1-methyl-1H-imidazol-4-yl)-pyrazolo[1,5-a]pyridin-4-yloxy]-phenyl}-amide]
< 10 | < 10 | CC(C)n1cc(C(=O)Nc2ccc(Oc3cc(-c4cn(C)cn4)cn4nccc34)cn2)c(=O)n(-c2ccc(F)cc2)c1=O [Example 124, 3-(4-Fluoro-phenyl)-1-isopropyl-2,4-dioxo-1,2,3,4-tetrahydro-pyrimidine-5-carboxylic acid {5-[6-(1-methyl-1H-imidazol-4-yl)-pyrazolo[1,5-a]pyridin-4-yloxy]-pyridin-2-yl}-amide]
< 10 | < 10 | CCn1nc(C(=O)Nc2ccc(Oc3cc(-c4cn(C)cn4)cn4nccc34)c(F)c2)c(=O)n(-c2ccc(F)cc2)c1=O [Example 128, 2-Ethyl-4-(4-fluoro-phenyl)-3,5-dioxo-2,3,4,5-tetrahydro-1,2,4-triazine-6-carboxylic acid {3-fluoro-4-[6-(1-methyl-1H-imidazol-4-yl)-pyrazolo[1,5-a]pyridin-4-yloxy]-phenyl}-amide]
< 10 | < 10 | CC(C)n1nc(C(=O)Nc2ccc(Oc3cc(-c4cn(C)cn4)cn4nccc34)c(F)c2)c(=O)n(-c2ccc(F)cc2)c1=O [Example 129, 4-(4-Fluoro-phenyl)-2-isopropyl-3,5-dioxo-2,3,4,5-tetrahydro-1,2,4-triazine-6-carboxylic acid{3-fluoro-4-[6-(1-methyl-1H-imidazol-4-yl)-pyrazolo[1,5-a]pyridin-4-yloxy]-phenyl}-amide]
< 10 | < 10 | CCn1cc(C(=O)Nc2ccc(Oc3cc(NC(C)=O)cn4nccc34)c(F)c2)c(=O)n(-c2ccc(F)cc2)c1=O [Example 142, 1-Ethyl-3-(4-fluoro-phenyl)-2,4-dioxo-1,2,3,4-tetrahydro-pyrimidine-5-carboxylic acid[4-(6-acetylamino-pyrazolo[1,5-a]pyridin-4-yloxy)-3-fluoro-phenyl]-amide]
< 10 | < 10 | CC(C)n1cc(C(=O)Nc2ccc(Oc3cc(NC(=O)N(C)C)cn4nccc34)c(F)c2)c(=O)n(-c2ccc(F)cc2)c1=O [Example 147, 3-(4-Fluoro-phenyl)-1-isopropyl-2,4-dioxo-1,2,3,4-tetrahydro-pyrimidine-5-carboxylic acid{4-[6-(3,3-dimethyl-ureido)-pyrazolo[1,5-a]pyridin-4-yloxy]-3-fluoro-phenyl}-amide]
< 10 | 10 to 100 | CCn1cc(C(=O)Nc2ccc(Oc3cc(NC(=O)OC)cn4nccc34)c(F)c2)c(=O)n(-c2ccc(F)cc2)c1=O [Example 148, [4-(4-{[1-Ethyl-3-(4-fluoro-phenyl)-2,4-dioxo-1,2,3,4-tetrahydro-pyrimidine-5-carbonyl]-amino}-2-fluoro-phenoxy)-pyrazolo[1,5-a]pyridin-6-yl]-carbamic acid methyl ester]
< 10 | 10 to 100 | COC(=O)Nc1cc(Oc2ccc(NC(=O)c3cn(C(C)C)c(=O)n(-c4ccc(F)cc4)c3=O)cc2F)c2ccnn2c1 [Example 149, [4-(2-Fluoro-4-{[3-(4-fluoro-phenyl)-1-isopropyl-2,4-dioxo-1,2,3,4-tetrahydro-pyrimidine-5-carbonyl]-amino}-phenoxy)-pyrazolo[1,5-a]pyridin-6-yl]-carbamic acid methyl ester]
